Values quoted from earlier work in patent US20170100411A1, “CORTICOSTEROID FORMULATIONS FOR MAINTAINING CORTICOSTEROID SYNOVIAL FLUID CONCENTRATIONS” (priority 2015, published 2017).

What was measured:
[1] = tested on: HPA axis; settings: BID administration of 20 mg
[2] = molecular target: T1, glucocorticosteroid (GC) receptor (Homo sapiens, UniProt P04150)
T1 sequence (P04150 1-777): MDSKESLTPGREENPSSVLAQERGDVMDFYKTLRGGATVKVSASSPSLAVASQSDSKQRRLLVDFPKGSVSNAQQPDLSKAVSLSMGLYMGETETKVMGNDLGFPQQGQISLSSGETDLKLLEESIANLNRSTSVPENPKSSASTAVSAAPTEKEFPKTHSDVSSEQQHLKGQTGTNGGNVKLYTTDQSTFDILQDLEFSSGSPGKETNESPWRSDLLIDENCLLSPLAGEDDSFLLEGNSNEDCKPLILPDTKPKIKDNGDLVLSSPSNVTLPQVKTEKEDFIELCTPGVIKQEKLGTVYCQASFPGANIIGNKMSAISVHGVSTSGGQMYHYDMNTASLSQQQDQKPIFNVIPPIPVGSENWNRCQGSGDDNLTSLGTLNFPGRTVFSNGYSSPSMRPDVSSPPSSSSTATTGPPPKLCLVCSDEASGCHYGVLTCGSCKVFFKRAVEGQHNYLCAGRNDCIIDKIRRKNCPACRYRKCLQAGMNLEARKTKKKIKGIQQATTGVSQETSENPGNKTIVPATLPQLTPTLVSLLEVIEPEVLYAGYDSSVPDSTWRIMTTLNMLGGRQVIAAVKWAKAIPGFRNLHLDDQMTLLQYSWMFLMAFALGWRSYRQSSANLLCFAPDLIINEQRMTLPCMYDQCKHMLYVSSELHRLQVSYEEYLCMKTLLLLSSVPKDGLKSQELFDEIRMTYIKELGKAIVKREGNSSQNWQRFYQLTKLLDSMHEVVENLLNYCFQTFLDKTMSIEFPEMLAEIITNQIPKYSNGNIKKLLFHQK

Row | suppression of the HPA axis (published CCS %) [1] | potency at the GC receptor relative to other corticosteroids such as TCA [2] | Compound
1 | 80-90% |  | Methylprednisone
2 |  | approximately 20 fold | CCC(=O)O[C@]1(C(=O)SCF)[C@H](C)C[C@H]2[C@@H]3C[C@H](F)C4=CC(=O)C=C[C@]4(C)[C@@]3(F)[C@@H](O)C[C@@]21C [fluticasone propionate]
